Where two headings read alike, the source gives them in different places.
Key:
[1] = biological target: human TLR8 (Homo sapiens (Human), UniProt Q9NR97); test: TLR8 inhibition reporter assay (HEK-Blue cells, SEAP reporter, R848 stimulation);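 also: compounds tested from 0.05 nM to 50 µM, 22 h at 37 °C, SEAP measured with HEK-Blue Detection, inhibition relative to agonist plus DMSO versus a known inhibitor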
[2] = biological target: human TLR9 (Homo sapiens (Human), UniProt Q9NR96); test: TLR9 inhibition reporter assay (HEK-Blue cells, SEAP reporter, ODN2006 stimulation);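 also: compounds tested over 0.05 nM to 50 µM, 22 h incubation, inhibition taken as SEAP signal drop from agonist plus DMSO wells toward a known inhibitor control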
Chain of human TLR9 (Q9NR96 26-1032): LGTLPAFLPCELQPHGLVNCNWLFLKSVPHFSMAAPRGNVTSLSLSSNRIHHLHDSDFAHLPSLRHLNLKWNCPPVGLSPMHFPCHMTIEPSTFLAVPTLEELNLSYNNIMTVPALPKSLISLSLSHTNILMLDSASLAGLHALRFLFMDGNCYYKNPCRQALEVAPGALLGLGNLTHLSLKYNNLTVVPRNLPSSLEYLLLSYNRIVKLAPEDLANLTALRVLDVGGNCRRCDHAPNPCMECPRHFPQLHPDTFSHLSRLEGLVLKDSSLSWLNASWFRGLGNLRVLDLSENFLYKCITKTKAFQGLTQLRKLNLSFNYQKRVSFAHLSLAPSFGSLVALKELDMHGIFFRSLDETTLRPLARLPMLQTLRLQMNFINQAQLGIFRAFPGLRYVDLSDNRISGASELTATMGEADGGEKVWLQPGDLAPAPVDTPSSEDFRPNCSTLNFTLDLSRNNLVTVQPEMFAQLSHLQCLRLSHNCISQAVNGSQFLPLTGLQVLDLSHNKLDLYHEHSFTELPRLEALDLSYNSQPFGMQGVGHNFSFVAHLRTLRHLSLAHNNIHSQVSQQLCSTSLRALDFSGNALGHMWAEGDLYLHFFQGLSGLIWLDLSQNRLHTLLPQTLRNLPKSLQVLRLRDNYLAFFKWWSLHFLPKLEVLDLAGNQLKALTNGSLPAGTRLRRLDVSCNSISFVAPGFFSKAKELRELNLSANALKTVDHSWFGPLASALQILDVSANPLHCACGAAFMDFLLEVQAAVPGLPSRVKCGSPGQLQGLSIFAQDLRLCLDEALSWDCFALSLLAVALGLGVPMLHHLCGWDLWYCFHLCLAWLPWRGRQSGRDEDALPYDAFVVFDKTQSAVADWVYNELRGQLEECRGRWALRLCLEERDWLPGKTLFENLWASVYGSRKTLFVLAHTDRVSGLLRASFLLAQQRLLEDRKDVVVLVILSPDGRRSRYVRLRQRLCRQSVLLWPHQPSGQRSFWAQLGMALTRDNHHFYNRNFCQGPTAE

[3] = biological target: human TLR7 (Homo sapiens (Human), UniProt Q9NYK1); test: TLR7 inhibition reporter assay (HEK-Blue cells, SEAP reporter, gardiquimod stimulation); assay type: cell-based
Chain of human TLR7 (Q9NYK1 27-1049): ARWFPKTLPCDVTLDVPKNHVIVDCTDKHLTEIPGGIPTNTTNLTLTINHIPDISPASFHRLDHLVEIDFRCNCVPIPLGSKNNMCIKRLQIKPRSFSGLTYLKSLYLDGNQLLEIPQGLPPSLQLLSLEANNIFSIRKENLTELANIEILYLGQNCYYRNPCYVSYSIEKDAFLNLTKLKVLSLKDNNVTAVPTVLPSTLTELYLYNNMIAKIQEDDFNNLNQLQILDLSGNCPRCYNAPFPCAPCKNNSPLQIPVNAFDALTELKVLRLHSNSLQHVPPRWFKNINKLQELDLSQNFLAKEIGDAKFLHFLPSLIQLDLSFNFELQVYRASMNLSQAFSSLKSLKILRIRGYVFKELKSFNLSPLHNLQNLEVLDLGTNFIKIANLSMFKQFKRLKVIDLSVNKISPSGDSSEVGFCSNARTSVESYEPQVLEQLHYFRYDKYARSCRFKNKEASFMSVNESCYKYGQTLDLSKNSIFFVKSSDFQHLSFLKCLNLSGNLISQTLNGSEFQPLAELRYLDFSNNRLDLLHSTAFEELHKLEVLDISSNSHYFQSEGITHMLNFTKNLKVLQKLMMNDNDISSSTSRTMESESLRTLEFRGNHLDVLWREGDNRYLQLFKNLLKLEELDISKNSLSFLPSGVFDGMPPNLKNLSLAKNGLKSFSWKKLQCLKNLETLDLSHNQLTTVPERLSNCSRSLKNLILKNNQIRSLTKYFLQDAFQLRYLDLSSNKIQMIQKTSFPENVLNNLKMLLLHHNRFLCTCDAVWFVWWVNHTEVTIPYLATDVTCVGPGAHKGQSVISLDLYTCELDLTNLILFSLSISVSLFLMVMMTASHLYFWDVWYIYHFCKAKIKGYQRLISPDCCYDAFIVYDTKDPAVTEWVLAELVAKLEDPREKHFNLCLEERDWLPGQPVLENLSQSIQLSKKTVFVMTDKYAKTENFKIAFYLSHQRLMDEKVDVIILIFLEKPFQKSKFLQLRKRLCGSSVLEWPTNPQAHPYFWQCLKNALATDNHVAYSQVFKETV

[4] = read-out: TLR8 IC50, HEK-Blue cells overexpressing human TLR8, R848 15.9 μM
[5] = read-out: TLR9 IC50, HEK-Blue cells overexpressing human TLR9, ODN2006 5 nM
[6] = HEK-Blue cells overexpressing human TLR7, gardiquimod 7.5 μM
[7] = read-out: TLR8 IC50, HEK-Blue cells, R848 15.9 μM
[8] = read-out: TLR9 IC50, HEK-Blue cells, ODN2006 5 nM
[9] = HEK-Blue cells, gardiquimod 7.5 μM

Chain of human TLR8 (Q9NR97 27-1041): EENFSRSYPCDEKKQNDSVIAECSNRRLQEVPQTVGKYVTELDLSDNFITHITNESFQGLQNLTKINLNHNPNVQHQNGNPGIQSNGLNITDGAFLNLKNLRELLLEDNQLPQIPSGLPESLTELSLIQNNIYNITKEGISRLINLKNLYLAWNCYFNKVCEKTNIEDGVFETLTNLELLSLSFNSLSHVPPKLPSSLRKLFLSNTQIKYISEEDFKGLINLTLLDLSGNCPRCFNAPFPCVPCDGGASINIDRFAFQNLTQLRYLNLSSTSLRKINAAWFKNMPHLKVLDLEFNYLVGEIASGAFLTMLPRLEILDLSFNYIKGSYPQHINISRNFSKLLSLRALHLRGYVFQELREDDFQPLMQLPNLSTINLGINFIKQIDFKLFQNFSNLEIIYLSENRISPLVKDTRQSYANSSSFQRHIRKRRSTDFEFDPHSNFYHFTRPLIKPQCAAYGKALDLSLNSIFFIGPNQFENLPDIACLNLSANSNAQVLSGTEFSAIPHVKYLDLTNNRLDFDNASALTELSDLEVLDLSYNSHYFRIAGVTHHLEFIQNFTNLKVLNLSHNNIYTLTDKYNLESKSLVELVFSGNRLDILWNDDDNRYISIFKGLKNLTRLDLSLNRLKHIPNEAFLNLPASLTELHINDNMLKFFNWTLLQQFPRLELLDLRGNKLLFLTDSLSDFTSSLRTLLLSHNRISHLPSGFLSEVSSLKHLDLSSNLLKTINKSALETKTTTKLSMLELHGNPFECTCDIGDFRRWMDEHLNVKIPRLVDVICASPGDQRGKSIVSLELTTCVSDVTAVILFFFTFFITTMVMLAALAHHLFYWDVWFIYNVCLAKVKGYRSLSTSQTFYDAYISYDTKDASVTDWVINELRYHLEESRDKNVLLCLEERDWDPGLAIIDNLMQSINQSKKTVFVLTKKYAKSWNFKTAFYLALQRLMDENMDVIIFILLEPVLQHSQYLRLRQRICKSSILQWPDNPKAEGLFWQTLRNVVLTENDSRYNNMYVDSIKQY

Compound	IC50 [1, 4]	IC50 [2, 5]	IC50 [3, 6]	IC50 ([1]; TLR8 IC50, HEK-Blue cells overexpressing human TLR8, R848 15.9 μM)	IC50 ([2]; TLR9 IC50, HEK-Blue cells overexpressing human TLR9, ODN2006 5 nM)	IC50 [1, 7]	IC50 [2, 8]	IC50 [3, 9]
Cc1cc(-c2[nH]c3ccc(C4CCN(C(=O)c5cn(C)nc5C)CC4)cc3c2C(C)C)cc(C)n1 [Example 141, (1,3-dimethyl-1H-pyrazol-4-yl)(4-(2-(2,6-dimethylpyridin-4-yl)-3-isopropyl-1H-indol-5-yl)piperidin-1-yl)methanone]	60.5 nM	40000 nM	4.8 nM					
Cc1cc(-c2[nH]c3ccc(C4CCN(C(=O)CN(C)C(C)(C)C)CC4)cc3c2C(C)C)cc(C)n1 [Example 359, 2-(tert-butyl (methyl)amino)-1-(4-(2-(2,6-dimethylpyridin-4-yl)-3-isopropyl-1H-indol-5-yl)piperidin-1-yl)ethan-1-one]	11.7 nM	826 nM	7.1 nM					
Cc1cc(-c2[nH]c3ccc(C4CCN(CC(=O)NC56CC7CC(CC(C7)C5)C6)CC4)cc3c2C(C)C)cc(C)n1 [Example 224, N-(adamantan-1-yl)-2-(4-(2-(2,6-dimethylpyridin-4-yl)-3-isopropyl-1H-indol-5-yl)piperidin-1-yl)acetamide]	820 nM	4130 nM	286 nM					
Cc1cc(-c2[nH]c3ccc(C4CCN(CC(=O)N5CCNC(=O)C5)CC4)cc3c2C(C)C)cc(C)n1 [Example 272, 4-(2-(4-(2-(2,6-dimethylpyridin-4-yl)-3-isopropyl-1H-indol-5-yl)piperidin-1-yl)acetyl)piperazin-2-one]	3.1 nM	46 nM	1.2 nM					
Cc1cc(-c2[nH]c3ccc(C4CCNCC4)cc3c2CC(F)F)ccn1 [Example 84, 3-(2,2-difluoroethyl)-2-(2-methylpyridin-4-yl)-5-(piperidin-4-yl)-1H-indole]	39.4 nM	464 nM	75.9 nM					
COc1cc(-c2[nH]c3ccc(C4CCN(C(=O)CN(C)C)CC4)cc3c2C(C)C)ccn1 [Example 521, 2-(dimethylamino)-1-(4-(3-isopropyl-2-(2-methoxypyridin-4-yl)-1H-indol-5-yl)piperidin-1-yl)ethan-1-one]	115 nM	3710 nM	41.6 nM					
Cc1cc(-c2[nH]c3ccc(C4CCN(CC5CN(Cc6ccccc6)CCO5)CC4)cc3c2C(C)C)cc(C)n1 (stereo not drawn) [Example 320, 4-benzyl-2-((4-(2-(2,6-dimethylpyridin-4-yl)-3-isopropyl-1H-indol-5-yl)piperidin-1-yl)methyl)morpholine]	21.8 nM	192 nM	18.2 nM					
Cc1cc(-c2[nH]c3ccc(C4CCN(CCO)CC4)cc3c2C(C)C)cc(C)n1 [Example 329, 2-(4-(2-(2,6-dimethylpyridin-4-yl)-3-isopropyl-1H-indol-5-yl)piperidin-1-yl)ethan-1-ol]	2.8 nM	437 nM	2.1 nM					
Cc1cc(-c2[nH]c3cc(F)c(C4CCNCC4)cc3c2C(C)C)cc(C)n1 [Example 78, 2-(2,6-dimethylpyridin-4-yl)-6-fluoro-3-isopropyl-5-(piperidin-4-yl)-1H-indole]	2.7 nM	145 nM	0.8 nM					
Cc1cc(-c2[nH]c3ccc(C4CCN(Cc5ncn(C)n5)CC4)cc3c2C(C)C)c(C)cn1 [Example 723, 2-(2,5-dimethylpyridin-4-yl)-3-isopropyl-5-(1-((1-methyl-1H-1,2,4-triazol-3-yl)methyl)piperidin-4-yl)-1H-indole]	8.4 nM	14500 nM	78.4 nM					
Cc1cc(-c2[nH]c3ccc(C4CCN(CC5COC5)CC4)cc3c2C(C)C)cc(C)n1 [Example 333, 2-(2,6-dimethylpyridin-4-yl)-3-isopropyl-5-(1-(oxetan-3-ylmethyl)piperidin-4-yl)-1H-indole]	1.4 nM	364 nM	0.8 nM					
CCc1c(-c2ccnc(OC)c2)[nH]c2ccc(C3CCN(C4CCN(CC)CC4)CC3)cc12 [Example 792, 3-ethyl-5-(1′-ethyl-[1,4′-bipiperidin]-4-yl)-2-(2-methoxypyridin-4-yl)-1H-indole]	84.9 nM	686 nM	304 nM					
Cc1cc(-c2[nH]c3ccc(C4CCN(C(=O)CN(C)[C@@H]5CCOC5)CC4)cc3c2C(C)C)cc(C)n1 [Example 402, (R)-1-(4-(2-(2,6-dimethylpyridin-4-yl)-3-isopropyl-1H-indol-5-yl)piperidin-1-yl)-2-(methyl(tetrahydrofuran-3-yl)amino) ethan-1-one]	61.1 nM	1820 nM	11.1 nM					
Cc1cc(-c2[nH]c3ccc(C4CCN(C5CC(C)OC(C)C5)CC4)cc3c2C(C)C)ccn1 (stereo not drawn) [Example 713, 5-(1-(2,6-dimethyltetrahydro-2H-pyran-4-yl)piperidin-4-yl)-3-isopropyl-2-(2-methylpyridin-4-yl)-1H-indole]	14.8 nM	550 nM	3.5 nM					
COCCN1CCN(CC(=O)N2CCC(c3ccc4[nH]c(-c5cc(C)nc(C)c5)c(C(C)C)c4c3)CC2)CC1 [Example 372, 1-(4-(2-(2,6-dimethylpyridin-4-yl)-3-isopropyl-1H-indol-5-yl)piperidin-1-yl)-2-(4-(2-methoxyethyl)piperazin-1-yl)ethan-1-one]			1.9 nM	14.1 nM	602 nM			
Cc1cc(-c2[nH]c3ccc(C4CCN(C(=O)c5cscn5)CC4)cc3c2C(C)C)cc(C)n1 [Example 201, (4-(2-(2,6-dimethylpyridin-4-yl)-3-isopropyl-1H-indol-5-yl)piperidin-1-yl)(thiazol-4-yl)methanone]	84.1 nM	5500 nM	5 nM					
Cc1cc(-c2[nH]c3ccc(C4CCN(C(C)CF)CC4)cc3c2C(C)C)c(C)cn1 (stereo not drawn) [Example 870, 2-(2,5-dimethylpyridin-4-yl)-5-(1-(1-fluoropropan-2-yl)piperidin-4-yl)-3-isopropyl-1H-indole]						4.1 nM	1440 nM	19.7 nM
Cc1cc(-c2[nH]c3ccc(C4CCN(C(=O)CN5CCCC(F)(F)C5)CC4)cc3c2C(C)C)cc(C)n1 [Example 390, 2-(3,3-difluoropiperidin-1-yl)-1-(4-(2-(2,6-dimethylpyridin-4-yl)-3-isopropyl-1H-indol-5-yl)piperidin-1-yl)ethan-1-one]	191 nM	25800 nM	17.9 nM					
Cc1cc(-c2[nH]c3ccc(C4CCN(CC(=O)N(C)C)CC4)cc3c2C(C)C)cc(C2CC2)n1 [Example 505, 2-(4-(2-(2-cyclopropyl-6-methylpyridin-4-yl)-3-isopropyl-1H-indol-5-yl)piperidin-1-yl)-N,N-dimethylacetamide]	27.1 nM	710 nM	5.9 nM					
Cc1cc(-c2[nH]c3ccc(C4CCN(C(=O)CN5CCOC5=O)CC4)cc3c2C(C)C)cc(C)n1 [Example 164, 3-(2-(4-(2-(2,6-dimethylpyridin-4-yl)-3-isopropyl-1H-indol-5-yl)piperidin-1-yl)-2-oxoethyl) oxazolidin-2-one]	39.7 nM	14200 nM	4.6 nM					
Cc1cc(-c2[nH]c3ccc(C4CCN(CCC#N)CC4)cc3c2C(C)C)c(C)cn1 [Example 665, 3-(4-(2-(2,5-dimethylpyridin-4-yl)-3-isopropyl-1H-indol-5-yl)piperidin-1-yl)propanenitrile]	2.2 nM	6210 nM	13.6 nM					
Cc1cc(-c2[nH]c3ccc(C4CCN(CC(C)(C)O)CC4)cc3c2C(C)C)c(C)cn1 [Example 851, 1-(4-(2-(2,5-dimethylpyridin-4-yl)-3-isopropyl-1H-indol-5-yl)piperidin-1-yl)-2-methylpropan-2-ol]						0.7 nM	1690 nM	10.4 nM
Cc1cc(-c2[nH]c3ccc(C4CCN(C(=O)Cc5cn(C)cn5)CC4)cc3c2C(C)C)cc(C)n1 [Example 137, 1-(4-(2-(2,6-dimethylpyridin-4-yl)-3-isopropyl-1H-indol-5-yl)piperidin-1-yl)-2-(1-methyl-1H-imidazol-4-yl)ethan-1-one]	39.1 nM	1780 nM	8.2 nM					
COc1cc(-c2[nH]c3ccc(C4CCN(C5CCN(CC6CC6)CC5)CC4)cc3c2C(C)C)ccn1 [Example 796, 5-(1′-(cyclopropylmethyl)-[1,4′-bipiperidin]-4-yl)-3-isopropyl-2-(2-methoxypyridin-4-yl)-1H-indole]	13.9 nM	563 nM	154 nM					
CCc1c(-c2ccnc(C#N)c2)[nH]c2ccc(C3CCNCC3)cc12 [Example 64, 4-(3-ethyl-5-(piperidin-4-yl)-1H-indol-2-yl)picolinonitrile]	61.8 nM	895 nM	95.6 nM					
Cc1cc(-c2[nH]c3ccc(C4CCN(S(=O)(=O)CC(F)(F)F)CC4)cc3c2C(C)C)ccn1 [Example 546, 3-isopropyl-2-(2-methylpyridin-4-yl)-5-(1-((2,2,2-trifluoroethyl)sulfonyl)piperidin-4-yl)-1H-indole]	820 nM	> 50000 nM	164 nM					
Cc1cc(-c2[nH]c3ccc(C4CCN(C(C)CF)CC4)cc3c2C(C)C)cc(C)n1 (stereo not drawn) [Example 472, 2-(2,6-dimethylpyridin-4-yl)-5-(1-(1-fluoropropan-2-yl)piperidin-4-yl)-3-isopropyl-1H-indole]	13.2 nM	601 nM	7.5 nM					
Cc1cc(-c2[nH]c3ccc(C4CCN(C(=O)[C@@H]5CCC[C@H](N)C5)CC4)cc3c2C(C)C)ccn1 [Example 576, ((1R,3S)-3-aminocyclohexyl)(4-(3-isopropyl-2-(2-methylpyridin-4-yl)-1H-indol-5-yl)piperidin-1-yl)methanone]	24.1 nM	731 nM	15.1 nM					

From patent publication US10660877B2 (BRISTOL-MYERS SQUIBB COMPANY, priority 2016, dated 2020)
